In ChEMBL document CHEMBL1133369, “Synthesis and preliminary biological evaluation of [3H]-MRE 3008-F20: the first high affinity radioligand antagonist for the human A3 adenosine receptors” (Bioorg Med Chem Lett, 2000):
pKd: −log10 of the molar value.

Legend:
[1] = target: T1, Adenosine receptor A3 (Homo sapiens) (UniProt P0DMS8); assay: Binding affinity against human AAdenosine A3 receptor in CHO cells; assay type: cell-based
T1 sequence (whole entry): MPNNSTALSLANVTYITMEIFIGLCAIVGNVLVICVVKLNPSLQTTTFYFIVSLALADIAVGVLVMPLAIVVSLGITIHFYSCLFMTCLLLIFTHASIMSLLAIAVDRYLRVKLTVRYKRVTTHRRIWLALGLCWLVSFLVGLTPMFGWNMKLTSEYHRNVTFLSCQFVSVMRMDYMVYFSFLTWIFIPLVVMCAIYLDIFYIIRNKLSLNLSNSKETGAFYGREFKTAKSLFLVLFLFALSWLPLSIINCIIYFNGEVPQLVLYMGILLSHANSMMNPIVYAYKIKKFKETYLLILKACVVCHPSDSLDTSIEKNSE

[2] = target: T2, Adenosine receptor A3 (Homo sapiens, UniProt P0DMS8); assay: Binding affinity against human Adenosine A3 receptor in CHO cells; assay type: cell-based
T2 sequence (P0DMS8 whole entry): T1 sequence (whole entry)

Bmax [1]: 297 fmol/mg
pKd [2]: 9.09
Structure (SMILES): C=CCn1cc2c(nc(NC(=O)Nc3ccc(OC)cc3)n3nc(-c4ccco4)nc23)n1
